Patent US10919764B2, “Multi-chamber hypochlorous acid dispenser” (WIAB WATER […], priority 2016, dated 2021)

System: spores
Conditions: acid used for protonization of HOCl
Text: In addition to buffering the product during storage and after application, acetic acid also has the advantage of improving the sporicidal effect by 40% compared to other acids used for protonization of HOCl.

CC(=O)O [acetic acid]
improvement of the sporicidal effect compared to other acids used for protonization of HOCl: 40%
